Reference: article PMC3932302 (Clinical cancer research : an official journal of the …, 2013)
Each block holds one compound with its values, some of them ahead of it.

Legend:
Type in all cases: cell-based
[1] = target: T1, organic cation transporter 1 (OCT1) (Homo sapiens, UniProt O15245)
T1 sequence (O15245 1-554): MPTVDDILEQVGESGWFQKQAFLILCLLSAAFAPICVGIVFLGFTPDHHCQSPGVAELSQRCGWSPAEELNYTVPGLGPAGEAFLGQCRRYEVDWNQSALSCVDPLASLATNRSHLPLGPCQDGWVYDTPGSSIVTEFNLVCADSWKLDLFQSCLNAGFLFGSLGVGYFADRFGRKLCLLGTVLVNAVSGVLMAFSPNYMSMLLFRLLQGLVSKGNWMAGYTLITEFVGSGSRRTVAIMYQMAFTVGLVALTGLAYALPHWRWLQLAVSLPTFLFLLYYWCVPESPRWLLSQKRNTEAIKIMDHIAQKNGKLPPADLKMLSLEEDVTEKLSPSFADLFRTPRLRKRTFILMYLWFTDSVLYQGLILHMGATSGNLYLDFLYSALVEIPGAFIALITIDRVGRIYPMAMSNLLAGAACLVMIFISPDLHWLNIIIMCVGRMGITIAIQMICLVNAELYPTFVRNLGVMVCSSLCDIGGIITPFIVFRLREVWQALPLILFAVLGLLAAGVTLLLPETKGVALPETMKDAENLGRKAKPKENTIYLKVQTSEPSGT

[2] = target: T1, organic cation transporter 1 (OCT1); test: inhibition of TEA uptake into OCT1-expressing cells at […]; settings: read-out: % inhibition at 50 μmol/L
[3] = target: T1, organic cation transporter 1 (OCT1); test: inhibition of […]TEA uptake into HEK-OCT1 cells at […]

Compound: COc1cc2nc(N3CCN(C(=O)c4ccco4)CC3)nc(N)c2cc1OC [prazosin]
inhibition of [14C]TEA uptake into HEK-OCT1 cells [1]: OCT1-dependent TEA uptake was significantly reduced in the presence of the inhibitors prazosin and decynium22 (Fig. 4A)

inhibition at 50 µM [2]: 90.7 ± 1%
Compound: Cc1ccc(NC(=O)c2ccc(CN3CCNCC3)cc2)cc1Nc1nccc(-c2cccnc2)n1 [N-desmethyl imatinib]

Compound: CCN1/C(=C/c2ccc3ccccc3[n+]2CC)C=Cc2ccccc21 [decynium22]
inhibition of [14C]TEA uptake into HEK-OCT1 cells at 5 μmol/L [3]: OCT1-dependent TEA uptake was significantly reduced in the presence of the inhibitors prazosin and decynium22 (Fig. 4A)
